Molecules are shown by their SMILES. Where only a bound is given, the exact number is not on record here.

T3 sequence (Q16620 32-822): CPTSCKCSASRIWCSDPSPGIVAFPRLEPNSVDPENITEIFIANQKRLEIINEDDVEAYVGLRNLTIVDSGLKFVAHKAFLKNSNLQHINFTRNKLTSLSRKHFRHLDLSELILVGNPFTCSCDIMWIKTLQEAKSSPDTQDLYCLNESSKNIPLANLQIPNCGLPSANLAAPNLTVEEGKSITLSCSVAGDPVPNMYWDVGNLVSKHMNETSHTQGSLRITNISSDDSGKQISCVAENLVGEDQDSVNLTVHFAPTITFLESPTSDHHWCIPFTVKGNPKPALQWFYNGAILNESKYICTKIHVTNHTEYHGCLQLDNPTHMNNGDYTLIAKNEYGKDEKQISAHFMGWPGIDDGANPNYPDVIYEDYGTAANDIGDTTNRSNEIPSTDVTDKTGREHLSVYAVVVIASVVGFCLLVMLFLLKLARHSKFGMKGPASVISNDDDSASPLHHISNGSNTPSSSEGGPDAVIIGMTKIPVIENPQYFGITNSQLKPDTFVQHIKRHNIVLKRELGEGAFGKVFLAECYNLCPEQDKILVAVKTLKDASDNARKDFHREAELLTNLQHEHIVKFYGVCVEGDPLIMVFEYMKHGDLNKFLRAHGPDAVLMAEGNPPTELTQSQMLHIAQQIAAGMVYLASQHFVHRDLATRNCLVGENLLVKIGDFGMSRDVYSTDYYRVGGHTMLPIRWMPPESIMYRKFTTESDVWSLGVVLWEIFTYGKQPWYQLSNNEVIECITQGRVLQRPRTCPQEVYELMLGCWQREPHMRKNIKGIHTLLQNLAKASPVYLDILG
T2 sequence (P10721 589-937 limits assumed): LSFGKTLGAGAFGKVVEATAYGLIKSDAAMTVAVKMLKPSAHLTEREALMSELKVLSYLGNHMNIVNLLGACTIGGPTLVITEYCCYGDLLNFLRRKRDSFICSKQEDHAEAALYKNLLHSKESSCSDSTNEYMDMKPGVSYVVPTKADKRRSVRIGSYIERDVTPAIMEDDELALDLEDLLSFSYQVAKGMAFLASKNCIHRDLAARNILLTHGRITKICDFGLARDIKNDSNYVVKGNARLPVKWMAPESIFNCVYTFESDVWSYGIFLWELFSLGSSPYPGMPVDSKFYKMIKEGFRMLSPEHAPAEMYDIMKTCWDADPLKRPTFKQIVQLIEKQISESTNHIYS

One experiment has as its target T1, FLT ligand-induced wild-type FLT3 phosphorylation in Baf3 FLT3 cells (Homo sapiens, UniProt P36888).
T1 construct: host or cells: Baf3 (murine B cell lymphoma line)
T1 sequence (P36888 27-993): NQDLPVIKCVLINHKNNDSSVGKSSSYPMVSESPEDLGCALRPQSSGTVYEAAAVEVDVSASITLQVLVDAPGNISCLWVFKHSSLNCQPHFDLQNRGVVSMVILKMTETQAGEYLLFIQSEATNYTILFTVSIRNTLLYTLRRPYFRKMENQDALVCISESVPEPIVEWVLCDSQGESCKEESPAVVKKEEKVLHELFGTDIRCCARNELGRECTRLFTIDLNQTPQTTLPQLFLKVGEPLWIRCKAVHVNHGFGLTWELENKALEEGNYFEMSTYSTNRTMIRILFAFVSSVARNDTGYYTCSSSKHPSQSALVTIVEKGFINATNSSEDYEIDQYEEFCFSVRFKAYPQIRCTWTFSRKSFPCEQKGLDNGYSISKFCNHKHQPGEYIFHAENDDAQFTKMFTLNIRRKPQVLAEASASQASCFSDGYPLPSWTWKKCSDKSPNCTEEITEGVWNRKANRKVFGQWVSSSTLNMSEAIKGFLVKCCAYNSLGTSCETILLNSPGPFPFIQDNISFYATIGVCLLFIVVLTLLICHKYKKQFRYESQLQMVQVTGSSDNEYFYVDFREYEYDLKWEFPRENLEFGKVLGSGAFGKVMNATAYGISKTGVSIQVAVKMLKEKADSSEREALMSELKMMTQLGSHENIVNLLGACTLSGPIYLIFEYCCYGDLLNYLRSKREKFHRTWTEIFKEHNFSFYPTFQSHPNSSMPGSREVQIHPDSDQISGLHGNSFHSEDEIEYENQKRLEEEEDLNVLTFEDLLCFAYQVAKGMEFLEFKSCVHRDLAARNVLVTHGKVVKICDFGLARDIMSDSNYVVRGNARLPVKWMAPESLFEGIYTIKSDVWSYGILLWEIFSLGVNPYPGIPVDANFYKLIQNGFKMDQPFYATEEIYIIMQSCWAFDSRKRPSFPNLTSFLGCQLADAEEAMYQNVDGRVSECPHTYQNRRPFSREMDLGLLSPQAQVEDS
Briefly: Cell-Based FLT3 Receptor Elisa (Baf3 FLT3 cells). As to conditions: 1 hour compound incubation, 100 ng/mL Flt ligand, uncertainty ±20%. As for the experimental part:
Specific cellular inhibition of FLT ligand-induced wild-type FLT3 phosphorylation was measured in the following manner: Baf3 FLT3 cells overexpressing the FLT3 receptor were obtained from Dr. Michael Heinrich (Oregon Health and Sciences University). The Baf3 FLT3 cell lines were created by stable transfection of parental Baf3 cells (a murine B cell lymphoma line dependent on the cytokine IL-3 for growth) with wild-type FLT3. Cells were selected for their ability to grow in the absence of IL-3 and in the presence of FLT3 ligand.
Baf3 cells were maintained in RPMI 1640 with 10% FBS, penn/strep and 10 ng/ml FLT ligand at 37° C., 5% CO2. To measure direct inhibition of the wild-type FLT3 receptor activity and phosphorylation a sandwich ELISA method was developed similar to those developed for other RTKs (3,4). 200 μL of Baf3FLT3 cells (1×10^6/mL) were plated in 96 well dishes in RPMI 1640 with 0.5% serum and 0.01 ng/mL IL-3 for 16 hours prior to 1 hour compound or DMSO vehicle incubation. Cells were treated with 100 ng/mL Flt ligand (R&D Systems Cat# 308-FK) for 10 min. at 37° C. Cells were pelleted, washed and lysed in 100 ul lysis buffer (50 mM Hepes, 150 mM NaCl, 10% Glycerol, 1% Triton —X-100, 10 mM NaF, 1 mM EDTA, 1.5 mM MgCl2, 10 mM NaPyrophosphate) supplemented with phosphatase (Sigma Cat# P2850) and protease inhibitors (Sigma Cat #P8340). […]
Usually IC50 stands for the concentration at which inhibition is half-maximal. Low values mean inhibition by little substance, high ones a need for much substance. In turn, `CC(C)Oc1ccc(NC(=O)OC2CCN(c3ncnc(N)c3/C=N/OCCCN(C)C)CC2)cc1` [Example 4, (4-Isopropoxy-phenyl)-carbamic acid 1-{6-amino-5-[(3-dimethylamino-propoxyimino)-methyl]-pyrimidin-4-yl}-piperidin-4-yl ester] displayed a half-maximal inhibitory concentration (IC50) of 0.345 µM.

Another experiment has as its target T2, isolated kinase domain of the human c-kit receptor (Homo sapiens, UniProt P10721).
T2 construct: isolated kinase domain of the human c-kit receptor; purchased ProQinase lot SP005
Briefly: c-Kit Fluorescence Polarization Kinase Assay. As to conditions: FP assay, 50 uM ATP, 1 nM c-kit; uncertainty ±10%. Type of experiment: biochemical. On the procedure:
The compounds of the present invention are also specific inhibitors of c-Kit. Selection of preferred compounds of Formula I for use as c-Kit inhibitors was performed in the following manner using an in vitro kinase assay to measure inhibition of the isolated kinase domain of the human c-kit receptor in a fluorescence polarization (FP) protocol. The c-kit assay utilized the fluorescein-labeled phosphopeptide and the anti-phosphotyrosine antibody included in the Panvera Phospho-Tyrosine Kinase Kit (Green) supplied by Invitrogen. When c-kit phosphorylated the poly Glu4Tyr, the fluorescein-labeled phosphopeptide was displaced from the anti-phosphotyrosine antibody by the phosphorylated poly Glu4Tyr, thus decreasing the FP value. The c-kit kinase reaction was incubated at room temperature for 45 minutes under the following conditions: 1 nM c-kit (ProQinase, lot SP005), 100 ug/mL poly Glu4Tyr, 50 uM ATP, 5 mM MgCl2, 1 mM DTT, 0.01% Tween-20, 1% DMSO or compound in […], pH 7.5. The kinase reaction was stopped with the addition of EDTA. The fluorescein-labeled phosphopeptide and the anti-phosphotyrosine antibody were added and incubated for 30 minutes at room temperature and fluorescence polarization was read. Data points were an average of triplicate samples. […]
(Fluorescence polarisation rises when a labelled molecule tumbles more slowly, as on binding a larger partner.)
In turn, `CCO/N=C/c1c(N)ncnc1N1CCC(OC(=O)Nc2ccc(OC(C)C)cc2)CC1` [Example 2, (4-Isopropoxy-phenyl)-carbamic acid 1-[6-amino-5-(ethoxyimino-methyl)-pyrimidin-4-yl]-piperidin-4-yl ester] gave an IC50 of 0.38 µM.
`CO/N=C/c1c(N)ncnc1N1CCC(CC(=O)Nc2ccc(C(C)C)cc2)C1` (stereo not shown) [Example 6, 2-{1-[6-Amino-5-(methoxyimino-methyl)-pyrimidin-4-yl]-pyrrolidin-3-yl}-N-(4-isopropyl-phenyl)-acetamide] had a 50% inhibitory concentration (IC50) of 0.016 µM.

The next experiment concerns the target T3, TrkB (Homo sapiens, UniProt Q16620).
T3 construct: purchased Upstate 14-507M
Briefly: Trk B Fluorescence Polarization Kinase Assay. Type of experiment: biochemical. As to conditions: FP assay, 150 uM ATP, 50 nM TrkB; uncertainty ±10%. On the procedure: The compounds of the present invention are also specific inhibitors of TrkB. Selection of preferred compounds of Formula I for use as TrkB inhibitors was performed in the following manner. The TrkB assay utilized the fluorescein-labeled phosphopeptide and the anti-phosphotyrosine antibody included in the Panvera Phospho-Tyrosine Kinase Kit (Green) supplied by Invitrogen. When TrkB phosphorylated poly Glu4Tyr, the fluorescein-labeled phosphopeptide was displaced from the anti-phosphotyrosine antibody by the phosphorylated poly Glu4Tyr, thus decreasing the FP value. The TrkB kinase reaction was incubated at room temperature for 30 minutes under the following conditions: 50 nM TrkB (Upstate, catalog # 14-507M), 20 ug/mL poly Glu4Tyr, 150 uM ATP, 5 mM MgCl2, 1% compound in DMSO. The kinase reaction was stopped with the addition of EDTA. The fluorescein-labeled phosphopeptide and the anti-phosphotyrosine antibody were added and incubated for 30 minutes at room temperature. Data points were an average of triplicate samples. Inhibition and IC50 data analysis were done with GraphPad Prism using a non-linear regression fit with a multiparamater, sigmoidal dose-response (variable slope) equation.
`CO/N=C/c1c(N)ncnc1N1CCC(NC(=O)Cc2ccc(C(C)C)cc2)CC1` [Example 16, N-{1-[6-Amino-5-(methoxyimino-methyl)-pyrimidin-4-yl]-piperidin-4-yl}-2-(4-isopropyl-phenyl)-acetamide] showed an IC50 of 7.4 µM.
In turn, `CC(C)Oc1ccc(NC(=O)OC2CCN(c3ncnc(N)c3/C=N/OCCN3CCOCC3)CC2)cc1` [Example 3, (4-Isopropoxy-phenyl)-carbamic acid 1-{6-amino-5-[(2-morpholin-4-yl-ethoxyimino)-methyl]-pyrimidin-4-yl}-piperidin-4-yl ester] yielded an IC50 of more than 42 µM.
On the same count and under the same terms, with `CO/N=C/c1c(N)ncnc1N1CCC(NC(=O)Nc2ccc(N3CCCCC3)cc2)CC1` [Example 13, 1-{1-[6-Amino-5-(methoxyimino-methyl)-pyrimidin-4-yl]-piperidin-4-yl}-3-(4-piperidin-1-yl-phenyl)-urea] the figure was 2.9 µM; with `CCO/N=C/c1c(N)ncnc1N1CCC(OC(=O)Nc2ccc(OC(C)C)cc2)CC1` [Example 2, (4-Isopropoxy-phenyl)-carbamic acid 1-[6-amino-5-(ethoxyimino-methyl)-pyrimidin-4-yl]-piperidin-4-yl ester], more than 42 µM.
`CO/N=C/c1c(N)ncnc1N1CCC(NC(=O)Nc2ccc(N3CCOCC3)cc2)C1` (stereo not shown) [Example 10, 1-{1-[6-Amino-5-(methoxyimino-methyl)-pyrimidin-4-yl]-pyrrolidin-3-yl}-3-(4-morpholin-4-yl-phenyl)-urea] came in with a 50% inhibitory concentration (IC50) of 32.1 µM.
Turning to `CO/N=C/c1c(N)ncnc1N1CCC(OC(=O)Nc2ccc(OC(C)C)cc2)CC1` [Example 1, (4-Isopropoxy-phenyl)-carbamic acid 1-[6-amino-5-(methoxyimino-methyl)-pyrimidin-4-yl]-piperidin-4-yl ester], the IC50 worked out at 29.4 µM.
For `CO/N=C/c1c(N)ncnc1N1CCC(CC(=O)Nc2ccc(C(C)C)cc2)C1` (stereo not shown) [Example 6, 2-{1-[6-Amino-5-(methoxyimino-methyl)-pyrimidin-4-yl]-pyrrolidin-3-yl}-N-(4-isopropyl-phenyl)-acetamide], the 50% inhibitory concentration (IC50) amounted to 0.3 µM.
For the compound `CO/N=C/c1c(N)ncnc1N1CCC(NC(=O)Nc2ccc(OC(C)C)cc2)C1` (stereo not shown) [Example 8, 1-{1-[6-Amino-5-(methoxyimino-methyl)-pyrimidin-4-yl]-pyrrolidin-3-yl}-3-(4-isopropoxy-phenyl)-urea], the concentration for half-maximal inhibition (IC50) came out at 14.2 µM.
In turn, `CO/N=C/c1c(N)ncnc1N1CCC(OC(=O)Nc2ccc(C(C)C)cc2)CC1` [Example 5, (4-Isopropyl-phenyl)-carbamic acid 1-[6-amino-5-(methoxyimino-methyl)-pyrimidin-4-yl]-piperidin-4-yl ester] displayed a half-maximal inhibitory concentration (IC50) of 23.9 µM.
For `CO/N=C/c1c(N)ncnc1N1CCC(NC(=O)Nc2ccc(N3CCCCC3)cc2)C1` (stereo not shown) [Example 9, 1-{1-[6-Amino-5-(methoxyimino-methyl)-pyrimidin-4-yl]-pyrrolidin-3-yl}-3-(4-piperidin-1-yl-phenyl)-urea], the IC50 was 11.9 µM.
On to `CO/N=C/c1c(N)ncnc1N1CCC(NC(=O)Nc2ccc(OC(C)C)cc2)CC1` [Example 12, 1-{1-[6-Amino-5-(methoxyimino-methyl)-pyrimidin-4-yl]-piperidin-4-yl}-3-(4-isopropoxy-phenyl)-urea], for which half-maximal inhibition (IC50) was put at 8.5 µM.
Consider `CO/N=C/c1c(N)ncnc1N1CCC(NC(=O)Nc2ccc(OC3CCC3)nc2)C1` (stereo not shown) [Example 11, 1-{1-[6-Amino-5-(methoxyimino-methyl)-pyrimidin-4-yl]-pyrrolidin-3-yl}-3-(6-cyclobutoxy-pyridin-3-yl)-urea], for which the midpoint of inhibition, the IC50, lay at 4.2 µM.
Still for that read-out and setting: with `CO/N=C/c1c(N)ncnc1N1CCC(CC(=O)Nc2ccc(C(C)C)cc2)CC1` [Example 7, 2-{1-[6-Amino-5-(methoxyimino-methyl)-pyrimidin-4-yl]-piperidin-4-yl}-N-(4-isopropyl-phenyl)-acetamide] the figure was 2.16 µM.
In the case of `CO/N=C/c1c(N)ncnc1N1CCC(NC(=O)Nc2ccc(N3CCOCC3)cc2)CC1` [Example 14, 1-{1-[6-Amino-5-(methoxyimino-methyl)-pyrimidin-4-yl]-piperidin-4-yl}-3-(4-morpholin-4-yl-phenyl)-urea], the half-maximal inhibitory concentration (IC50) was 15.6 µM.
On the same count and under the same terms, with `CO/N=C/c1c(N)ncnc1N1CCC(NC(=O)Nc2ccc(OC3CCC3)nc2)CC1` [Example 15, 1-{1-[6-Amino-5-(methoxyimino-methyl)-pyrimidin-4-yl]-piperidin-4-yl}-3-(6-cyclobutoxy-pyridin-3-yl)-urea] the figure was more than 42 µM.
On the same count and under the same terms, with `CC(C)Oc1ccc(NC(=O)OC2CCN(c3ncnc(N)c3/C=N/OCCCN(C)C)CC2)cc1` [Example 4, (4-Isopropoxy-phenyl)-carbamic acid 1-{6-amino-5-[(3-dimethylamino-propoxyimino)-methyl]-pyrimidin-4-yl}-piperidin-4-yl ester] the figure was more than 42 µM.
